In patent publication US20240361317A1, “PROBES BASED ON VOLATILE ORGANIC COMPOUNDS AND USES THEREOF FOR THE DIAGNOSIS AND PROGNOSIS OF PATHOLOGICAL CONDITIONS” (Centre National de la Recherche Scientifique, priority 2021, published 2024):

Columns and labels:
[1] = test system: α-L-fucosidase; assay: Plasma protocol: labeled ethanol released in headspace of plasma after adding probe; type: biochemical, human
Protocol: (§1) The plasma (approximately […]) is extracted and stored at −20° C. until analysis. An aliquot of 25 μL of plasma is sampled and inserted into a […] with an insert. This biological sample is added to 50 μL of acetate buffer solution (pH 5), protease inhibitor (1×) and 25 μL probe D5-ethyl-β-D-glucuronide at […]. After hermetic closure and agitation to the vortex of the vial, an SPME (SPME in semi-polar phase of the Car/PDMS, 1 cm long and 75 μm thick type with a 24 ga needle; Supelco) of the gas phase above the sample of a duration of 30 mi is carried out after 2 h, 4 h and 7 h of reaction. Each kinetic point requires a vial reaction, and is carried out in duplicate. The VOCs trapped on the SPME fiber are then analyzed by G-TQMS. GC-TMS detection of the ethanol isotopes (thus including ethanol-D5) is carried out with gas chromatography coupled to a triple quadrupole equipped with an E1 source (TSQ 9000, Thermo Fisher Scientific). The system is controlled by the software TSQ 9000 and the results are analyzed with the Xcalibur software (Thermo Fisher Scientific).
(§2) In order to verify the diagnostic efficacy of this cocktail, it was tested on samples of plasma taken from 4 patients suffering from breast cancer and 3 patients with lung cancer. These patients were diagnosed, but had at the time of sampling not yet received treatment suited to their pathological condition.
(§3) After adding the 4 probes (according to the above protocol), the quantity of the 4 isotopes of the ethanol released above the samples of the patients was measured over time. The responses of each isotope were compared with those obtained when the cocktail was added to plasmas of 4 healthy patients. An experimental blank was also carried out each day of analysis. These blanks correspond to negative controls wherein the cocktail was added, whereas none of the 4 enzymes was present therein (FIG. 9).
(§4) According to the plasma protocol described above, the probes were used to detect the six enzymatic activities in these samples. To summarize, an aliquot of 25 μL of plasma will be sampled and inserted into a 2 mL vial with an insert. This biological sample was added from 61.4 μL buffer solution (pH 5), 3.6 μL of protease inhibitor (1×) and 10 μL of one or the other of the cocktails. After hermetic closure and agitation to the vortex of the vial, an SPME (SPME in semi-polar phase of the Car/PDMS, 1 cm long and 75 μm thick type with a 24 ga needle, Supelco) of the gas phase above the sample of a duration of 30 min will be carried out after 2 h, 4 h and 7 h of reaction. Each kinetic point requires a vial reaction, and was carried out in duplicate. The VOCs trapped on the SPME fiber are then analyzed by GC-TQMS according to the parameters defined in Tables 4 and 5. […]

[2] = target: T1, β-glucuronidase (Homo sapiens, UniProt P08236); assay: as above; type: biochemical; conditions: Ethanol-D5; Cocktail 1; 5·10^−4/5·10^−5 mol·L^−1; Splitless
T1 construct: from tissue; host or cells: human blood plasma
T1 sequence (P08236 23-651): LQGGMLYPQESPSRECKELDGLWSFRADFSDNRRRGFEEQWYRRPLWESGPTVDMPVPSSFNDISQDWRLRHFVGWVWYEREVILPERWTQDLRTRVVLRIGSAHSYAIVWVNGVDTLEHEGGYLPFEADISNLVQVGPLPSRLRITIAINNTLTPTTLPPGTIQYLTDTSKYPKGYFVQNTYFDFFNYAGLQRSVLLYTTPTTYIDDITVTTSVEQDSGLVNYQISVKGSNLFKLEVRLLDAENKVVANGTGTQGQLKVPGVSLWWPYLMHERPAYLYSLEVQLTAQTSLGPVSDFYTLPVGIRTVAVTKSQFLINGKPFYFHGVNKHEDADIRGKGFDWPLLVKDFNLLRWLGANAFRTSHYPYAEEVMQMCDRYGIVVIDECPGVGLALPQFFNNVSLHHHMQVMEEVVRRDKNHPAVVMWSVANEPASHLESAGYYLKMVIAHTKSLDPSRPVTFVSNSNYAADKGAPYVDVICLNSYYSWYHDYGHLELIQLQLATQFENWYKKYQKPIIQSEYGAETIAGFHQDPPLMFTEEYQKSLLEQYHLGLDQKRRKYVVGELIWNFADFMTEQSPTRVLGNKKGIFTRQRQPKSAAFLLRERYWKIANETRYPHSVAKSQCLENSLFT
Protocol: as §1
Blood samples were taken by the caregiver associated with the oncological service, then collected and pretreated with the CIC. This study included samples of plasma taken from 11 patients suffering from breast cancer and 11 patients suffering from lung cancer.
These patients were diagnosed, but had at the time of sampling not yet received treatment. Their response was compared to that obtained from the plasma of 4 healthy patients. The results were compared to an experimental blank wherein the probe was added, but the enzyme was not present (FIG. 3). […]
After adding the 4 probes (according to the above protocol), the quantity of the 4 isotopes of the ethanol released above the samples of the patients was measured over time. […]
(§5) According to the plasma protocol described above, the probes were used to detect the six enzymatic activities in these samples. […] The VOCs trapped on the SPME fiber are then analyzed by GC-TQMS according to the parameters defined in Tables 4 and 5. […]

[3] = target: T1, β-glucuronidase; assay: Reference method: hydrolysis of para-nitrophenol glucuronide, UV detection at 400 nm, on patient plasma; type: biochemical; conditions: plasma of cancer and healthy patients
Source text: The limit of detection of the enzyme with the probe is between […] (signal to noise 9) and […] (signal to noise 37), which leads to a minimum quantity of detectable enzyme equal to 1.10^−18 mol. This LOD is 100 times lower than the threshold value obtained according to the reference detection method of this same enzyme (Li et al., 2018, Biotechnology Letters, 40, 11 1-118; Xiao et al., 2020, RSC Advances, 10, 22966). This method corresponds to the hydrolysis of para-nitrophenol glucuronide. It was carried out in acetate buffer […], followed by UV detection at 400 nm of the para-nitrophenol (FIG. 2).
Finally, these same plasma samples were tested with the reference method targeting […] (UV detection in the presence of para-nitrophenol; protocol described page 5).

[4] = test system: N-acetyl-glucosaminidase; assay: Plasma protocol: labeled ethanol released in headspace of plasma after adding probe; type: biochemical, human
Protocol: as §1, §2, §3, §4

[5] = test system: N-acetyl glucosaminidase; assay: Specificity study: hydrolysis of probes by the enzyme; type: biochemical
Protocol: (§6) The detection performances of this compound in the presence of ethanol and ethanol-D5 were then verified. […] The detection ranges of ethanol-D5 and ethanol-^13C-D5 were then carried out under SPME sampling conditions developed for biological samples (30 min of sampling at 30° C.). The two isotopes were present in mixtures in solution. The limits of detection obtained are respectively […]. The SPME-GC-TQMS method therefore allows a sharp differentiation of the two isotopes according to their mass fragmentation. An experimental study was then carried out in order to evaluate the affinity of the D5-ethyl-β-D-glucuronide and ^13C-D5-ethyl-N-acetylglucosamine for their respective enzyme (β-glucuronidase and N-acetyl glucosaminidase). For this, the efficacy of hydrolysis of each of these enzymes was studied in the presence of their respective probe (FIG. 6) then in the presence of the substrate probe of its partner (FIG. 7). […] In the presence of the two substrates, each enzyme gives a signal only for the probe specific to it (FIG. 8).

[6] = target: β-glucuronidase (Escherichia coli, UniProt P05804); assay: as above; type: biochemical
Chain of β-glucuronidase (Escherichia coli, UniProt P05804) (P05804 whole entry): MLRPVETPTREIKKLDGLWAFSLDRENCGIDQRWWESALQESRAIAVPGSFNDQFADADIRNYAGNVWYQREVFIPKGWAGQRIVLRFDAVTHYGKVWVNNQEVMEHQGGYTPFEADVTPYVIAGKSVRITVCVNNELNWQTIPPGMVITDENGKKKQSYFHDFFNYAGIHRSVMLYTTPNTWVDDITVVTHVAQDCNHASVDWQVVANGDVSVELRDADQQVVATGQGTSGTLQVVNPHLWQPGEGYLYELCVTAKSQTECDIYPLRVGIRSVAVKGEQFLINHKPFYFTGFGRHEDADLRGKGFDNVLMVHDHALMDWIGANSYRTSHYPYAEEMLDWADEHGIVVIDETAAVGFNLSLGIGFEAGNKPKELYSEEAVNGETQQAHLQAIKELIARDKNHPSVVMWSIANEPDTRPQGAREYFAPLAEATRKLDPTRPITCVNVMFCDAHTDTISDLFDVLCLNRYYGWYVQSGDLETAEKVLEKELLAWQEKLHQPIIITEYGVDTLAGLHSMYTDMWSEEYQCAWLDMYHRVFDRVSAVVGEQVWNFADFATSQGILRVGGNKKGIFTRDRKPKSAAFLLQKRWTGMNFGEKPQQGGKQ
Protocol: as §6

[7] = target: T2, β-D-galactosidase (Homo sapiens, UniProt P16278); assay: Plasma protocol: labeled ethanol released in headspace of plasma after adding probe; type: biochemical; conditions: for discernment between healthy patients and cancer patients: cocktail of 4 probes, plasma of breast and lung cancer patients vs 4 healthy
T2 construct: from tissue; host or cells: human blood plasma
T2 sequence (P16278 29-677): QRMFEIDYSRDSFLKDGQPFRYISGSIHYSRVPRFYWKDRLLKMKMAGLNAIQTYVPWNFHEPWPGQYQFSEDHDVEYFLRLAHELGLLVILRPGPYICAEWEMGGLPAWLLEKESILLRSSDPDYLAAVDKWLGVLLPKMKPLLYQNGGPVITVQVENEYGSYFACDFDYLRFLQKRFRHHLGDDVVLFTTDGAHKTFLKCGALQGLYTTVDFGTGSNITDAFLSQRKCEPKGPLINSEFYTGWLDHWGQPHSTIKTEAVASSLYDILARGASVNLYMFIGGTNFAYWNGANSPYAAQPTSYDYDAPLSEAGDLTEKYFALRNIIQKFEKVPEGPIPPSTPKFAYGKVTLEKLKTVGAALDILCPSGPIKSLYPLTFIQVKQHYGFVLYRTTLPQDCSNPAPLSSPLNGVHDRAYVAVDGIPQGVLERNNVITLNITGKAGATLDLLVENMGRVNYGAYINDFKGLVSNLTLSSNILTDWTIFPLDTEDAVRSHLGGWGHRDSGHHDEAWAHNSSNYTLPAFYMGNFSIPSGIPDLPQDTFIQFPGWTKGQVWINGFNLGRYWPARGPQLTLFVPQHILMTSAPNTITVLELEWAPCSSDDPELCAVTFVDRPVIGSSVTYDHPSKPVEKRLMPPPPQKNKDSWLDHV
Protocol: as §1, §2
as §3, with “These blanks correspond to negative controls wherein the cocktail was added, whereas none of the 4 enzymes was present therein (FIG. 9).” left out
as §5

[8] = test system: KB tumors (tumor xenograft, tumor cells of the nasopharynx KB); assay: In vivo test of cocktail of 4 probes: ethanol isotopes exhaled after i.v. injection; parameters: species or system mouse; conditions: 15 days after implantation; 1 h after i.v. injection
Protocol: In the context of this study, the quantity of 4 expired isotopes by mouse models carrying a tumor xenograft (tumor cells of the nasopharynx KB; n=6) was compared to that exhaled by healthy animals (n=6) after i.v. injection of the cocktail.
The concentration of the 4 probes to be injected was determined beforehand according to a precise experimental plan having the objective of determining the amount of each probe inducing a minimum ethanol response in healthy animals (signal reaching a low or even zero basal level). In this context, the healthy animals received increasing doses of the 4 probes ([…] at 100 μg·kg^−1). The animals were then placed in a hermetic cage for 1 h. The amount of each ethanol isotope present in the breath of the animals was then measured for 30 min via an SPME sample, then a GC-TQMS analysis.
Once the i.v. doses are set, the cocktail was injected into healthy mice and diseased mice after 12 and then 15 days of implantation of the xenograft. The amount of the ethanol isotopes exhaled by the animals was measured 1 h after injection of the cocktail (FIG. 10). A negative control on two mice (healthy and diseased) was carried out. This control consisted of measuring the quantity of 4 isotopes of ethanol in the air surrounding the mice which had not received the cocktail. Ethanol-D5, ethanol-D4 and ethanol-^13CD5 were not detected. […]

CCC[C@@H]1C[C@H](C)[C@@H](C)[C@@H](C)[C@@H]1C
Plasma response range (u.a.) ([1]; Ethanol-D4, Cocktail 3, 10^−3/10^−4 mol·L^−1, Splitless): 5000-230000 u.a.

CCC[C@@H]1C[C@H](C(C)C)[C@@H](C)[C@H](C)[C@H]1C
Plasma response range (u.a.) [2]: 1000-35000 u.a.

O=C(O)[C@H]1O[C@@H](Oc2ccc([N+](=O)[O-])cc2)[C@H](O)[C@@H](O)[C@@H]1O [para-nitrophenol glucuronide]
detection of the enzyme in the same plasma samples by the reference method [3]: not detected in any of the samples

[2H]C(O[C@@H]1O[C@@H](C)[C@@H](O)[C@@H](O)[C@@H]1O)C([2H])([2H])[2H] (stereo partly drawn) [D4-ethyl-1-α-L-fucopyranoside]
discernment between healthy patients and cancer patients ([1]; cocktail of 4 probes, plasma of breast and lung cancer patients vs healthy): allow clear discernment between healthy patients and cancer patients

^13C-D5-ethyl-N-acetylglucosamide [^13C-D5-ethyl-N-acetylglucosamine]
discernment between healthy patients and cancer patients ([4]; cocktail of 4 probes, plasma of breast and lung cancer patients vs 4 healthy): allow clear discernment between healthy patients and cancer patients | hydrolysis of probe by N-acetyl glucosaminidase (labeled ethanol signal) [5]: has hydrolyzed its own probe | hydrolysis of probe by β-glucuronidase (labeled ethanol signal) [6]: does not hydrolysis

[2H]C([2H])(C)O[C@@H]1O[C@H](CO)[C@H](O)[C@H](O)[C@H]1O [D2-ethyl-β-D-galactopyranoside]
discernment between healthy patients and cancer patients [7]: does not make it possible to discern healthy patients from cancer patients | discernment between healthy patients and cancer patients ([7]; listed as D2-ethyl-β-d-galactopyranoside): does not make it possible to differentiate healthy patients from breast cancer or lung cancer patients | activation of probe in the microenvironment of KB (nasopharyngeal) tumors, release of ethanol isotope in exhaled air [8]: activated

C=C(C)C[C@@H]1[C@@H](CCC)C[C@H](CC)[C@@H](C)[C@@H]1C
Plasma response range (u.a.) ([4]; Ethanol-13CD5, Cocktail 2, 10^−3/10^−4 mol·L^−1, Split 1:15): 10000-300000 u.a.

CCC[C@@H]1C[C@H](CC)[C@H](C)[C@H](C)[C@H]1C
Plasma response range (u.a.) ([7]; Ethanol-D2, Cocktail 1, 10^−3/10^−4 mol·L^−1, Splitless): 2000-16000 u.a.
